Laboratory results from BindingDB's records for patent US20130102619 (2013).

Biological target: T1, Orexin receptor type 2 (Homo sapiens, UniProt O43614)
T1 sequence (O43614 whole entry): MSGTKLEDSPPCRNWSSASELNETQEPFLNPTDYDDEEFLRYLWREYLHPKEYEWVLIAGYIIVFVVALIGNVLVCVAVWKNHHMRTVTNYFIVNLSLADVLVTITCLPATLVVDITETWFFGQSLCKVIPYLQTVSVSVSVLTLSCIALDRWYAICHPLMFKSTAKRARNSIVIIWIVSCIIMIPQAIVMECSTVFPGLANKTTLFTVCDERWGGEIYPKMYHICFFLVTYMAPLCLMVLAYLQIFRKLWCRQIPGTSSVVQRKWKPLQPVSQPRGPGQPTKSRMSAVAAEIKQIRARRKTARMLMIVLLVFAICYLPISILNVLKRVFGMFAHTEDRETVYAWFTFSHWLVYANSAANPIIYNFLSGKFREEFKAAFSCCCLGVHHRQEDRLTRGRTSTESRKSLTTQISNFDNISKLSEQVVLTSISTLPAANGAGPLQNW
Experiment: FLIPR Ca2+ Flux Assay
Settings: 37 °C
Protocol: Chinese hamster ovary (CHO) cells expressing the rat orexin-1 receptor or the human orexin-2 receptor, are grown in Iscove's modified DMEM containing 2 mM L-glutamine, […], 1% hypoxanthine-thymidine supplement, 100 U/ml penicillin, 100 ug/ml streptomycin and 10% heat-inactivated fetal calf serum (FCS). The cells are seeded at 20,000 cells/well into Becton-Dickinson black 384-well clear bottom sterile plates coated with poly-D-lysine. All reagents were from GIBCO-Invitrogen Corp. The seeded plates are incubated overnight at 37° C. and 5% CO2. Ala-6,12 human orexin-A as the agonist is prepared as a 1 mM stock solution in 1% bovine serum albumin (BSA) and diluted in assay buffer (HBSS containing 20 mM HEPES, 0.1% BSA and 2.5 mM probenecid, pH7.4) for use in the assay at a final concentration of 70 pM. Test compounds are prepared as 10 mM stock solution in DMSO, then diluted in 384-well plates, first in DMSO, then assay buffer. On the day of the assay, cells are washed 3 times with 100 ul assay buffer and then incubated for 60 min (37° C., 5% CO2) in 60 ul assay buffer containing 1 uM Fluo-4AM ester, 0.02% pluronic acid, and 1% BSA. The dye loading solution is then aspirated and cells are washed 3 times with 100 ul assay buffer. 30 ul of that same buffer is left in each well. Within the Fluorescent Imaging Plate Reader (FLIPR, Molecular Devices), test compounds are added to the plate in a volume of 25 ul, incubated for 5 min and finally 25 ul of agonist is added. Fluorescence is measured for each well at 1 second intervals for 5 minutes and the height of each fluorescence peak is compared to the height of the fluorescence peak induced by 70 pM Ala-6,12 orexin-A with buffer in place of antagonist.

SMILES	IC50 [µM]
C[C@@H]1CC[C@@H](Oc2cc(C#N)ccn2)CN1C(=O)c1ccccc1-n1nccn1 [US20130102619, 1]	0.012
C[C@@H]1CC[C@@H](Oc2cc(C#N)ccn2)CN1C(=O)c1ccccc1-c1ncccn1 [US20130102619, 2]	0.028
Cc1nc(-c2ccccc2C(=O)N2C[C@H](Oc3cc(C#N)ccn3)CC[C@H]2C)no1 [US20130102619, 3]	0.018
